“Also recorded” adds a separate entry of the source.
Assays:
IL-10 = settings: LPS-stimulated hPBMC and human whole blood; background statement; cited from earlier work
T cells = settings: background statement; cited from earlier work
IL-1β = settings: LPS-stimulated hPBMC and human whole blood; background statement; cited from earlier work
TNF-α = settings: LPS-stimulated hPBMC and human whole blood; background statement; cited from earlier work
[1] = Chemical stability of Compound A towards hydrolysis; assay type: physicochemical

## O=C1CC[C@H](N2Cc3c(OCc4ccc(CN5CCOCC5)cc4)cccc3C2=O)C(=O)N1 [Compound A, (S)-3-(4-((4-(morpholinomethyl)benzyl)oxy)-1-oxoisoindolin-2-yl)piperidine-2,6-dione]
IL-10
  Effect on IL-10, in words: stimulates
T cells
  Co-stimulation of T cells, in words: potent co-stimulator
IL-1β
  Inhibition of IL-1β, in words: potently inhibits
TNF-α
  Degradation of TNF-α mRNA, in words: enhances
  Inhibition of TNF-α, in words: markedly inhibits
[1]
  Susceptibility to hydrolysis, in words: prone to hydrolysis; also recorded: easily degraded by hydrolysis
